Assays:
MV4-11 = experiment: Cytotoxicity towards MV4-11 cell line; assay type: cell-based; conditions: Homo sapiens
Protocol: (§1) In various embodiments, the compounds of the disclosure are those in which show IC50 values in cytotoxicity experiments towards cells lines MV4-11 and U937 of >20 μM, 10-20 μM, 5-10 μM, 1-5 μM, or <1 μM.
(§2) The IC50 is divided into 5 categories: A<1 μM, B 1-5 μM, C 5-10 μM, D 10-20 μM, and E>20 μM.

U-937 = experiment: Cytotoxicity towards U-937 cell line; assay type: cell-based; conditions: Homo sapiens
Protocol: as §1, §2

SMILES: O=C(NCCCn1ccnc1)c1ccc(N2CCOCC2)c(C#Cc2ccccc2)c1 [TT-03261]
- IC50 (MV4-11): < 1000 nM
- IC50 (U-937): < 1000 nM

SMILES: O=C(NCCCn1ccnc1)c1ccc(-n2cccn2)c(C#Cc2cccnc2)c1 [TT-03264]
- IC50 (MV4-11): < 1000 nM
- IC50 (U-937): < 1000 nM

SMILES: O=C(NCCCc1cn[nH]c1)c1ccc(-n2cccn2)c(C#Cc2cccnc2)c1 [TT-03303]
- IC50 (MV4-11): < 1000 nM
- IC50 (U-937): < 1000 nM

SMILES: O=C(NCCCc1cn[nH]c1)c1ccc(-n2cccn2)c(C#Cc2ccncc2)c1 [TT-03304]
- IC50 (MV4-11): < 1000 nM
- IC50 (U-937): < 1000 nM

SMILES: O=C(NCCCn1ccnc1)c1ccc(-n2cccn2)c(C#Cc2ccncc2)c1 [TT-03305]
- IC50 (MV4-11): < 1000 nM
- IC50 (U-937): < 1000 nM

SMILES: COc1ccc(C#Cc2cc(C(=O)NCCCc3cn[nH]c3)ccc2-n2cccn2)cc1 [TT-03306]
- IC50 (MV4-11): < 1000 nM
- IC50 (U-937): < 1000 nM

SMILES: COc1cccc(C#Cc2cc(C(=O)NCCCc3cn[nH]c3)ccc2-n2cccn2)c1 [TT-03308]
- IC50 (MV4-11): < 1000 nM
- IC50 (U-937): < 1000 nM

SMILES: COc1cccc(C#Cc2cc(C(=O)NCCCn3ccnc3)ccc2-n2cccn2)c1 [TT-03309]
- IC50 (MV4-11): < 1000 nM
- IC50 (U-937): < 1000 nM

SMILES: O=C(NCCCc1cn[nH]c1)c1ccc(-n2cccn2)c(C#Cc2cccc(O)c2)c1 [TT-03311]
- IC50 (MV4-11): < 1000 nM
- IC50 (U-937): < 1000 nM

SMILES: O=C(NCCCn1ccnc1)c1ccc(-n2cccn2)c(C#Cc2cccc(O)c2)c1 [TT-03312]
- IC50 (MV4-11): < 1000 nM
- IC50 (U-937): < 1000 nM

SMILES: O=C(NCCCc1cn[nH]c1)c1ccc(-n2cccn2)c(C#Cc2ccccc2Cl)c1 [TT-03321]
- IC50 (MV4-11): < 1000 nM
- IC50 (U-937): < 1000 nM

SMILES: O=C(NCCCc1cn[nH]c1)c1ccc(-n2cccn2)c(C#Cc2cccc(Cl)c2)c1 [TT-03322]
- IC50 (MV4-11): < 1000 nM
- IC50 (U-937): < 1000 nM

SMILES: O=C(NCCCc1cn[nH]c1)c1ccc(-n2cccn2)c(C#Cc2ccccc2C(F)(F)F)c1 [TT-03323]
- IC50 (MV4-11): < 1000 nM
- IC50 (U-937): < 1000 nM

SMILES: O=C(NCCCc1cn[nH]c1)c1ccc(-n2cccn2)c(C#Cc2ccc(C(F)(F)F)cc2)c1 [TT-03324]
- IC50 (MV4-11): 1000 to 5000 nM
- IC50 (U-937): 1000 to 5000 nM

SMILES: Cc1ccccc1C#Cc1cc(C(=O)NCCCc2cn[nH]c2)ccc1-n1cccn1 [TT-03326]
- IC50 (MV4-11): < 1000 nM
- IC50 (U-937): < 1000 nM

SMILES: Cc1cccc(C#Cc2cc(C(=O)NCCCn3ccnc3)ccc2-n2cccn2)c1 [TT-03327]
- IC50 (MV4-11): < 1000 nM
- IC50 (U-937): < 1000 nM

SMILES: Cc1cccc(C#Cc2cc(C(=O)NCCCc3cn[nH]c3)ccc2-n2cccn2)c1 [TT-03328]
- IC50 (MV4-11): < 1000 nM
- IC50 (U-937): < 1000 nM

SMILES: COc1ccccc1C#Cc1cc(C(=O)NCCCc2cn[nH]c2)ccc1-n1cccn1 [TT-03330]
- IC50 (MV4-11): < 1000 nM
- IC50 (U-937): < 1000 nM

SMILES: O=C(NCCCn1ccnc1)c1ccc(-n2cccn2)c(C#Cc2cccc(C(F)(F)F)c2)c1 [TT-03331]
- IC50 (MV4-11): < 1000 nM
- IC50 (U-937): < 1000 nM

SMILES: O=C(NCCCc1cn[nH]c1)c1ccc(-n2cccn2)c(C#Cc2cccc(C(F)(F)F)c2)c1 [TT-03332]
- IC50 (MV4-11): < 1000 nM
- IC50 (U-937): < 1000 nM

SMILES: NCc1ccc(C#Cc2cc(C(=O)NCCCc3cn[nH]c3)ccc2-n2cccn2)cc1 [TT-03334]
- IC50 (MV4-11): < 1000 nM
- IC50 (U-937): < 1000 nM

SMILES: C#Cc1cc(C(=O)NCCCc2cn[nH]c2)ccc1-n1cccn1 [TT-03337]
- IC50 (MV4-11): 10000 to 20000 nM
- IC50 (U-937): > 20000 nM

SMILES: CC(C)(O)C#Cc1cc(C(=O)NCCCc2cn[nH]c2)ccc1-n1cccn1 [TT-03346]
- IC50 (MV4-11): 5000 to 10000 nM
- IC50 (U-937): > 20000 nM

SMILES: O=C(NCCCc1cn[nH]c1)c1ccc(-n2cccn2)c(C#CC2(O)CCCCC2)c1 [TT-03351]
- IC50 (MV4-11): 5000 to 10000 nM
- IC50 (U-937): 5000 to 10000 nM

SMILES: Nc1cccc(C#Cc2cc(C(=O)NCCCc3cn[nH]c3)ccc2-n2cccn2)n1 [TT-03354]
- IC50 (MV4-11): < 1000 nM
- IC50 (U-937): < 1000 nM

SMILES: O=C(NCCCc1cn[nH]c1)c1ccc(-n2cccn2)c(C#Cc2ccccn2)c1 [TT-03355]
- IC50 (MV4-11): < 1000 nM
- IC50 (U-937): < 1000 nM

SMILES: N#Cc1cccc(C#Cc2cc(C(=O)NCCCc3cn[nH]c3)ccc2-n2cccn2)c1 [TT-03357]
- IC50 (MV4-11): < 1000 nM
- IC50 (U-937): < 1000 nM

SMILES: CNC(=O)c1cccc(C#Cc2cc(C(=O)NCCCc3cn[nH]c3)ccc2-n2cccn2)c1 [TT-03359]
- IC50 (MV4-11): < 1000 nM
- IC50 (U-937): < 1000 nM

Source: US10538520B2, “Benzamide and nicotinamide compounds and methods of using same” (OncoTartis Inc., priority 2013, dated 2020)
